Measured values from the NIST ThermoML archive (doi:10.1021/acs.jced.6b00691).

Experiment: xn = mol fraction of the nth substance listed
Conditions: Liquid, Taylor dispersion method, x2 = 0

CC(C)CCCC(C)CCCC(C)CCCCC(C)CCCC(C)CCCC(C)C (centres undefined) [2,6,10,15,19,23-hexamethyltetracosane] + O=C=O
Conditions	binary diffusion coefficient [m2/s]
298 K, 1100 kPa	9.6e-10
298 K, 10000 kPa	8.6e-10
298 K, 32000 kPa	6.9e-10
298 K, 52000 kPa	5.6e-10
298 K, 66000 kPa	4.9e-10
323 K, 1100 kPa	1.78e-09
323 K, 10000 kPa	1.61e-09
323 K, 30000 kPa	1.35e-09
323 K, 52000 kPa	1.14e-09
323 K, 64000 kPa	1.02e-09
348 K, 1000 kPa	2.83e-09
348 K, 11000 kPa	2.57e-09
348 K, 31000 kPa	2.18e-09
348 K, 50000 kPa	1.94e-09
348 K, 67000 kPa	1.73e-09
373 K, 1000 kPa	4.06e-09
373 K, 10000 kPa	3.72e-09
373 K, 30000 kPa	3.21e-09
373 K, 47000 kPa	2.88e-09
373 K, 66000 kPa	2.58e-09
398 K, 1000 kPa	5.45e-09
398 K, 11000 kPa	4.98e-09
398 K, 31000 kPa	4.38e-09
398 K, 50000 kPa	3.89e-09
398 K, 66000 kPa	3.55e-09
423 K, 1000 kPa	7.01e-09
423 K, 11000 kPa	6.36e-09
423 K, 30000 kPa	5.69e-09
423 K, 50000 kPa	5e-09
423 K, 67000 kPa	4.6e-09

CCCCCCCCCC [decane] + O=C=O
Conditions	binary diffusion coefficient [m2/s]
298 K, 1100 kPa	4.69e-09
298 K, 22000 kPa	4e-09
298 K, 45000 kPa	3.22e-09
298 K, 68000 kPa	2.84e-09
323 K, 1100 kPa	6.44e-09
323 K, 22000 kPa	5.41e-09
323 K, 46000 kPa	4.39e-09
323 K, 68000 kPa	3.91e-09
373 K, 1100 kPa	1.04e-08
373 K, 22000 kPa	8.76e-09
373 K, 44000 kPa	7.08e-09
373 K, 67000 kPa	6.34e-09
423 K, 1100 kPa	1.51e-08
423 K, 21000 kPa	1.27e-08
423 K, 43000 kPa	1.02e-08
423 K, 66000 kPa	9.17e-09

CCCCCCCCCCCC [dodecane] + O=C=O
Conditions	binary diffusion coefficient [m2/s]
298 K, 1300 kPa	3.72e-09
298 K, 24000 kPa	3.1e-09
298 K, 47000 kPa	2.65e-09
323 K, 1200 kPa	5.53e-09
323 K, 25000 kPa	4.23e-09
323 K, 46000 kPa	3.65e-09
323 K, 63000 kPa	3.44e-09
373 K, 1200 kPa	9.3e-09
373 K, 24000 kPa	7.57e-09
373 K, 46000 kPa	6.54e-09
373 K, 61000 kPa	5.98e-09
423 K, 1200 kPa	1.35e-08
423 K, 23000 kPa	1.14e-08
423 K, 46000 kPa	9.75e-09
423 K, 65000 kPa	8.65e-09

CCCCCCC [heptane] + O=C=O
binary diffusion coefficient [m2/s]
Conditions	1000 kPa	10000 kPa	30000 kPa	31000 kPa	48000 kPa	49000 kPa	50000 kPa	51000 kPa	67000 kPa	68000 kPa
298 K	7.28e-09	6.82e-09	–	5.9e-09	–	–	5.37e-09	–	–	5.06e-09
323 K	9.25e-09	8.72e-09	7.64e-09	–	–	–	–	6.95e-09	–	6.37e-09
348 K	1.14e-08	1.02e-08	9.4e-09	–	8.1e-09	–	–	–	7.89e-09	–
373 K	1.37e-08	1.25e-08	1.12e-08	–	–	9.95e-09	–	–	–	9.32e-09
398 K	1.61e-08	1.49e-08	1.31e-08	–	–	–	1.17e-08	–	–	1.09e-08
423 K	1.8e-08	1.68e-08	1.5e-08	–	–	–	1.36e-08	–	–	1.23e-08

CCCCCCCCCCCCCCCC [hexadecane] + O=C=O
Conditions	binary diffusion coefficient [m2/s]
298 K, 1000 kPa	2.49e-09
298 K, 10000 kPa	2.31e-09
298 K, 30000 kPa	2.08e-09
323 K, 1100 kPa	3.75e-09
323 K, 10000 kPa	3.41e-09
323 K, 30000 kPa	3.17e-09
323 K, 51000 kPa	2.61e-09
323 K, 69000 kPa	2.51e-09
348 K, 1000 kPa	5.13e-09
348 K, 10000 kPa	4.64e-09
348 K, 30000 kPa	4.37e-09
348 K, 50000 kPa	3.77e-09
348 K, 67000 kPa	3.49e-09
373 K, 1100 kPa	6.72e-09
373 K, 10000 kPa	6.17e-09
373 K, 30000 kPa	5.88e-09
373 K, 52000 kPa	4.84e-09
373 K, 67000 kPa	4.67e-09
398 K, 1100 kPa	8.53e-09
398 K, 29000 kPa	7.42e-09
398 K, 53000 kPa	6.27e-09
398 K, 69000 kPa	5.86e-09
423 K, 1100 kPa	1.04e-08
423 K, 10000 kPa	9.72e-09
423 K, 29000 kPa	9.16e-09
423 K, 45000 kPa	7.96e-09
423 K, 69000 kPa	7.07e-09

CCCCCC [hexane] + O=C=O
Conditions	binary diffusion coefficient [m2/s]
298 K, 1300 kPa	8.32e-09
298 K, 23000 kPa	7.27e-09
298 K, 49000 kPa	6.06e-09
298 K, 65000 kPa	5.13e-09
323 K, 1200 kPa	1.05e-08
323 K, 22000 kPa	9.27e-09
323 K, 50000 kPa	7.61e-09
323 K, 66000 kPa	7.15e-09
373 K, 1200 kPa	1.58e-08
373 K, 22000 kPa	1.34e-08
373 K, 49000 kPa	1.1e-08
373 K, 64000 kPa	1.03e-08
423 K, 1200 kPa	1.87e-08
423 K, 22000 kPa	1.79e-08
423 K, 48000 kPa	1.49e-08
423 K, 64000 kPa	1.37e-08

CCCCCCCC [octane] + O=C=O
Conditions	binary diffusion coefficient [m2/s]
298 K, 1000 kPa	6.32e-09
298 K, 11000 kPa	5.66e-09
298 K, 33000 kPa	4.72e-09
298 K, 50000 kPa	4.28e-09
298 K, 66000 kPa	3.83e-09
323 K, 900 kPa	8.19e-09
323 K, 11000 kPa	7.36e-09
323 K, 32000 kPa	6.1e-09
323 K, 51000 kPa	5.62e-09
323 K, 68000 kPa	5.1e-09
348 K, 900 kPa	1.04e-08
348 K, 11000 kPa	8.98e-09
348 K, 33000 kPa	7.7e-09
348 K, 50000 kPa	7.07e-09
348 K, 69000 kPa	6.54e-09
373 K, 1100 kPa	1.26e-08
373 K, 11000 kPa	1.11e-08
373 K, 31000 kPa	9.46e-09
373 K, 50000 kPa	8.87e-09
373 K, 67000 kPa	8.01e-09
398 K, 1100 kPa	1.48e-08
398 K, 11000 kPa	1.34e-08
398 K, 31000 kPa	1.14e-08
398 K, 51000 kPa	1.06e-08
398 K, 69000 kPa	9.67e-09
423 K, 1100 kPa	1.67e-08
423 K, 11000 kPa	1.62e-08
423 K, 29000 kPa	1.36e-08
423 K, 51000 kPa	1.27e-08
423 K, 65000 kPa	1.14e-08

Cc1ccccc1 [toluene] + O=C=O
Conditions	binary diffusion coefficient [m2/s]
298 K, 1000 kPa	5.53e-09
298 K, 11000 kPa	5.09e-09
298 K, 30000 kPa	4.77e-09
298 K, 48000 kPa	4.28e-09
298 K, 68000 kPa	3.92e-09
323 K, 1000 kPa	7.28e-09
323 K, 10000 kPa	6.78e-09
323 K, 30000 kPa	6.32e-09
323 K, 49000 kPa	5.7e-09
323 K, 66000 kPa	5.17e-09
348 K, 1000 kPa	9.26e-09
348 K, 11000 kPa	8.62e-09
348 K, 30000 kPa	8.02e-09
348 K, 48000 kPa	7.31e-09
348 K, 67000 kPa	6.54e-09
373 K, 1000 kPa	1.14e-08
373 K, 10000 kPa	1.04e-08
373 K, 30000 kPa	9.81e-09
373 K, 51000 kPa	8.94e-09
373 K, 67000 kPa	8e-09
398 K, 1000 kPa	1.38e-08
398 K, 10000 kPa	1.24e-08
398 K, 30000 kPa	1.17e-08
398 K, 48000 kPa	1.05e-08
398 K, 68000 kPa	9.6e-09
423 K, 1100 kPa	1.6e-08
423 K, 10000 kPa	1.5e-08
423 K, 30000 kPa	1.4e-08
423 K, 50000 kPa	1.23e-08
423 K, 67000 kPa	1.14e-08
